Measurements taken from US8802700B2 (Vertex Pharmaceuticals Incorporated, priority 2010, dated 2014).

biological target: T1, ΔF508-CFTR (Homo sapiens, UniProt P13569, DEL508-508); assay: Membrane potential optical assay (FRET voltage-sensor dyes, VIPR), identification of potentiator compounds; assay type: cell-based; conditions: Table 3; assay not given; read-out: % Activity (% Efficacy, relative efficacy)
T1 construct: expressed in transfected cells
Method in brief: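 NIH3T3 mouse fibroblasts stably expressing ΔF508-CFTR, cultured 24 h at 27 °C, were loaded with FRET voltage dyes CC2-DMPE and DiSBAC2(3). Double-addition format: first addition of Cl⁻-free (gluconate) medium with or without compound; membrane-potential change read as fluorescence on VIPR II.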

T1 sequence (P13569 with tags, fused parts or gaps DEL508-508): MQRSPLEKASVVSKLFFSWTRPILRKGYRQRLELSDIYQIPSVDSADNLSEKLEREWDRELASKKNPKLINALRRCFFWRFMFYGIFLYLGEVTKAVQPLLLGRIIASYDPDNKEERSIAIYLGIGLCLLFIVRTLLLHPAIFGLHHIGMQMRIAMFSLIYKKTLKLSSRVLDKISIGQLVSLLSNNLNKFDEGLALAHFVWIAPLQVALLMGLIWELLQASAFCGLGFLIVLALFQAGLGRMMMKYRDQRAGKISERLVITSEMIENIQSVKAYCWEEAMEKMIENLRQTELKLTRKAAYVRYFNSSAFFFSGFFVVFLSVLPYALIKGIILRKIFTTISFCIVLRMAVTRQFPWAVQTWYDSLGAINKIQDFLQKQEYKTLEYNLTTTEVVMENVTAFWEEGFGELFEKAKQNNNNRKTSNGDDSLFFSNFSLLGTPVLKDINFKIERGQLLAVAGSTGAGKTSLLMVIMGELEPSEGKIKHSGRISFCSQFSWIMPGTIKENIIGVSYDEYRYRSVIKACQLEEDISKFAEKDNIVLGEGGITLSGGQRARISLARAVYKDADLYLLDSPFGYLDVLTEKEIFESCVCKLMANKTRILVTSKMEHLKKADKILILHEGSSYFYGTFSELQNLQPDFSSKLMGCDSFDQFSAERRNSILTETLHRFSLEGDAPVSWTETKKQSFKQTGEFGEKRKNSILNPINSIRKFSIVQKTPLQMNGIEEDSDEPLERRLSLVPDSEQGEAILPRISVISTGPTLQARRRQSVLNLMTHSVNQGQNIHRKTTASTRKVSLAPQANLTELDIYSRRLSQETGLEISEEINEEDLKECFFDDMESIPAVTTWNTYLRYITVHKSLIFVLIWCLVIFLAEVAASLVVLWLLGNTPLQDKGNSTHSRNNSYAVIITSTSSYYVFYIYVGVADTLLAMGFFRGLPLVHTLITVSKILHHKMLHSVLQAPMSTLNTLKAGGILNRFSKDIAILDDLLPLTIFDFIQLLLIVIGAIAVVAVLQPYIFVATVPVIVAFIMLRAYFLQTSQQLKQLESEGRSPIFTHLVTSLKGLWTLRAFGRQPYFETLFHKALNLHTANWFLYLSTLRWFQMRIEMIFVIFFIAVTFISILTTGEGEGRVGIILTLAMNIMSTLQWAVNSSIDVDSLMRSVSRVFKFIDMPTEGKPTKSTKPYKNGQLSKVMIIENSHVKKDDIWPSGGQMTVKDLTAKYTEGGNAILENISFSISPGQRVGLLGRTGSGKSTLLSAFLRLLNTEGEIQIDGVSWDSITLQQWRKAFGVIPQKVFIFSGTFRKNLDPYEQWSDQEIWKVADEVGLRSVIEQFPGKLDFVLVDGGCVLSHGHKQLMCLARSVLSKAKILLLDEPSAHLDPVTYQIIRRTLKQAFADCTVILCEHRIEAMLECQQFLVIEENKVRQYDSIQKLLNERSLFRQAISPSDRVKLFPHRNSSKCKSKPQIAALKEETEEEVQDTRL

Row | Emax | Structure (SMILES)
1 | 25 to 100% | O=C(Nc1ccccc1-c1ccccc1OC(F)(F)F)c1c[nH]c2ccccc2c1=O [Compound 156, 4-oxo-N-[2-[2-(trifluoromethoxy)phenyl]phenyl]-1H-quinoline-3-carboxamide]
2 | < 25% | O=C(Nc1cccc2[nH]ccc12)c1c[nH]c2ccccc2c1=O [Compound 100, N-(1H-indol-4-yl)-4-oxo-1H-quinoline-3-carboxamide]
3 | 25 to 100% | N#Cc1cccc(NC(=O)c2c[nH]c3ccccc3c2=O)c1 [Compound 447, N-(3-cyanophenyl)-4-oxo-1H-quinoline-3-carboxamide]
4 | < 25% | CC(C)(C)c1cc2cc[nH]c2cc1NC(=O)c1c[nH]c2c(C(F)(F)F)cccc2c1=O [Compound 559, 4-oxo-N-(5-tert-butyl-1H-indol-6-yl)-8-(trifluoromethyl)-1H-quinoline-3-carboxamide]
5 | 25 to 100% | O=C(Nc1ccc2[nH]ccc2c1)c1c[nH]c2ccccc2c1=O [Compound 294, N-(1H-indol-5-yl)-4-oxo-1H-quinoline-3-carboxamide]
6 | 25 to 100% | CCc1c[nH]c2cc(NC(=O)c3c[nH]c4ccccc4c3=O)ccc12 [Compound 383, N-(3-ethyl-1H-indol-6-yl)-4-oxo-1H-quinoline-3-carboxamide]
7 | 25 to 100% | O=C(Nc1ccccc1-c1ccc(Cl)c(Cl)c1)c1c[nH]c2ccccc2c1=O [Compound 85, N-[2-(3,4-dichlorophenyl)phenyl]-4-oxo-1H-quinoline-3-carboxamide]
8 | 25 to 100% | COc1ccc(Oc2ccc(C(F)(F)F)cc2NC(=O)c2c[nH]c3ccccc3c2=O)cc1 [Compound 205, N-[2-(4-methoxyphenoxy)-5-(trifluoromethyl)phenyl]-4-oxo-1H-quinoline-3-carboxamide]
9 | 25 to 100% | COc1cccc2[nH]cc(C(=O)Nc3ccc4cc[nH]c4c3)c(=O)c12 [Compound 479, N-(1H-indol-6-yl)-5-methoxy-4-oxo-1H-quinoline-3-carboxamide]
10 | < 25% | CC(C)(C)c1cc(F)c(NC(=O)c2c[nH]c3c(C(F)(F)F)cccc3c2=O)cc1O [Compound 638, N-(2-fluoro-5-hydroxy-4-tert-butyl-phenyl)-4-oxo-8-(trifluoromethyl)-1H-quinoline-3-carboxamide]
11 | 25 to 100% | CNc1cc(NC(=O)c2c[nH]c3ccccc3c2=O)ccc1C(C)(C)C [Compound 484, N-(3-methylamino-4-tert-butyl-phenyl)-4-oxo-1H-quinoline-3-carboxamide]
12 | < 25% | O=C(Nc1cccc(S(=O)(=O)N2CCCCC2)c1)c1c[nH]c2ccccc2c1=O [Compound 442, 4-oxo-N-[3-(1-piperidylsulfonyl)phenyl]-1H-quinoline-3-carboxamide]
13 | > 100% | O=C(Nc1cc(O)c(C2CCCCC2)cc1C(F)(F)F)c1c[nH]c2ccccc2c1=O [Compound 619, N-[4-cyclohexyl-5-hydroxy-2-(trifluoromethyl)phenyl]-4-oxo-1H-quinoline-3-carboxamide]
14 | 25 to 100% | CC(C)(C)c1cc2ccc(NC(=O)c3c[nH]c4ccccc4c3=O)cc2[nH]1 [Compound 320, 4-oxo-N-(2-tert-butyl-1H-indol-6-yl)-1H-quinoline-3-carboxamide]
15 | 25 to 100% | O=C(Nc1ccc(C2CCCCC2)c(O)c1)c1c[nH]c2ccccc2c1=O [Compound 564, N-(4-cyclohexyl-3-hydroxy-phenyl)-4-oxo-1H-quinoline-3-carboxamide]
16 | 25 to 100% | COC(=O)[C@@H]1[C@@H](C)CCN1c1ccc(NC(=O)c2c[nH]c3ccccc3c2=O)c(C(F)(F)F)c1 [Compound 530, (2S,3S)-methyl 3-methyl-1-(4-(4-oxo-1,4-dihydroquinoline-3-carboxamido)-3-(trifluoromethyl)phenyl)pyrrolidine-2-carboxylate]

Row | Emax | Structure (SMILES)
17 | < 25% | COc1nc(NC(=O)c2c[nH]c3ccccc3c2=O)ccc1C(F)(F)F [Compound 571, N-[6-methoxy-5-(trifluoromethyl)-2-pyridyl]-4-oxo-1H-quinoline-3-carboxamide]
18 | 25 to 100% | CC(C)(C)c1cc2cc[nH]c2cc1NC(=O)c1c[nH]c2ccc(S(=O)(=O)N3CCCC3)cc2c1=O [Compound 274, 4-oxo-6-pyrrolidin-1-ylsulfonyl-N-(5-tert-butyl-1H-indol-6-yl)-1H-quinoline-3-carboxamide]
19 | > 100% | CCOc1cccc(-c2ccccc2NC(=O)c2c[nH]c3ccccc3c2=O)c1 [Compound 306, N-[2-(3-ethoxyphenyl)phenyl]-4-oxo-1H-quinoline-3-carboxamide]
20 | 25 to 100% | CC(C)c1ccc(NC(=O)c2c[nH]c3ccccc3c2=O)c(C(F)(F)F)c1 [Compound 47, N-[4-isopropyl-2-(trifluoromethyl)phenyl]-4-oxo-1H-quinoline-3-carboxamide]
21 | 25 to 100% | Cc1ccc(C(F)(F)F)cc1NC(=O)c1c[nH]c2ccccc2c1=O [Compound 577, N-[2-methyl-5-(trifluoromethyl)phenyl]-4-oxo-1H-quinoline-3-carboxamide]
22 | 25 to 100% | Cc1ccccc1-c1ccccc1NC(=O)c1c[nH]c2ccccc2c1=O [Compound 199, N-[2-(o-tolyl)phenyl]-4-oxo-1H-quinoline-3-carboxamide]
23 | 25 to 100% | CC(C)(C)c1cccc(NC(=O)c2c[nH]c3ccccc3c2=O)c1 [Compound 602, 4-oxo-N-(3-tert-butylphenyl)-1H-quinoline-3-carboxamide]
24 | 25 to 100% | COc1ccc2[nH]cc(C(=O)Nc3ccc(N4CCC[C@@H]4C)cc3C(F)(F)F)c(=O)c2c1 [Compound 601, (S)-6-methoxy-N-(4-(2-methylpyrrolidin-1-yl)-2-(trifluoromethyl)phenyl)-4-oxo-1,4-dihydroquinoline-3-carboxamide]
25 | 25 to 100% | CCc1cccc(C(C)CC)c1NC(=O)c1c[nH]c2ccccc2c1=O (centres unmarked) [Compound 322, N-(2-ethyl-6-sec-butyl-phenyl)-4-oxo-1H-quinoline-3-carboxamide]
26 | 25 to 100% | COC(=O)NC1CCCc2ccc(NC(=O)c3c[nH]c4ccccc4c3=O)cc21 (centres unmarked) [Compound 159, [7-[(4-Oxo-1H-quinolin-3-yl)carbonylamino]tetralin-1-yl]aminoformic acid methyl ester]
27 | > 100% | COc1cc2[nH]cc(C(=O)Nc3cc(O)c(C(C)(C)C)cc3C(C)(C)C)c(=O)c2cc1F [Compound 617, 6-fluoro-N-(5-hydroxy-2,4-ditert-butyl-phenyl)-7-methoxy-4-oxo-1H-quinoline-3-carboxamide]
28 | < 25% | O=C(Nc1cccnc1)c1c[nH]c2ccccc2c1=O [Compound 168, 4-oxo-N-(3-pyridyl)-1H-quinoline-3-carboxamide]
29 | 25 to 100% | O=C(Nc1cc2[nH]ccc2cc1F)c1c[nH]c2ccccc2c1=O [Compound 77, N-(5-fluoro-1H-indol-6-yl)-4-oxo-1H-quinoline-3-carboxamide]
30 | 25 to 100% | CC(C)CNC(=O)c1cc2cc[nH]c2cc1NC(=O)c1c[nH]c2ccccc2c1=O [Compound 343, N-[5-(Isobutylcarbamoyl)-1H-indol-6-yl]-4-oxo-1H-quinoline-3-carboxamide]
31 | 25 to 100% | CC(C)(C)OC(=O)N1CCCc2ccc(NC(=O)c3c[nH]c4ccccc4c3=O)cc21 [Compound 183, 7-[(4-oxo-1H-quinolin-3-yl)carbonylamino]-1,2,3,4-tetrahydroquinoline-1-carboxylic acid tert-butyl ester]

Row | Structure (SMILES) | Emax
32 | CCCCOc1ccccc1NC(=O)c1c[nH]c2ccccc2c1=O [Compound 177, N-(2-butoxyphenyl)-4-oxo-1H-quinoline-3-carboxamide] | > 100%
